Tests used:
[1] = target: T1, CK1α (Homo sapiens, UniProt P48729); assay: CK1α NanoBit Assay (HiBiT-tagged CSNK1A1, HEK293 clonal lines); type: cell-based; conditions: HEK293 HiBiT-CSNK1A1/LgBiT cells, 24 h incubation
T1 construct: HEK293 clonal lines with CRISPR KI HiBiT tag on CSNK1A1
Procedure, shortened: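 HEK293 clones carrying a CRISPR knock-in HiBiT tag on CSNK1A1 and stably expressing LgBiT are treated with compound for 24 hours at 37° C, 5% CO2, then read by luminescence. Response is normalized as 100*(S−N)/(P−N) against plate negative and positive controls, and DC50 values are derived.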

[2] = target: CRBN/DDB1 (Homo sapiens, UniProt Q96SW2); assay: HTRF binding assay (displacement of Cy5-thalidomide probe from CRBN/DDB1); conditions: CRBN/DDB1 2.5 nM, Cy5-Thalidomide 100 nM, 30 min; geometric mean; read-out: HTRF_Thali_Disp_DR_geo_IC50
Excerpt: Binding of test compounds to CRBN/DDB1 was monitored in an HTRF assay using 1-[5-({2-[2-(2-{[2-(2,6-dioxopiperidin-3-yl)-1,3-dioxo-2,3-dihydro-1H-isoindol-4-yl]oxy}acetamido)ethoxy]ethyl}carbamoyl)pentyl]-3,3-dimethyl-2-[(1E,3E)-5-[(2E)-1,3,3-trimethyl-5-sulfo-2,3-dihydro-1H-indol-2-ylidene]penta-1,3-dien-1-yl]-3H-indol-1-ium-5-sulfonate as a fluorescent probe. In this assay, compounds displace the fluorescently labeled thalidomide-based probe bound to CRBN and fluorescence is monitored with increasing compound concentration. Assays were conducted in Greiner white 384 well HiBase plates (Cat. No 784075-25) in 10 μL total volume. A one pot detection solution of CRBN/DDB1 (2.5 nM), anti-His Terbium Cryptate Gold (1×, PerkinElmer Cat. #: 61HI2TLB), and Cy5-Thalidomide (100 nM, Tenova Cat.: T52461) was prepared in 20 mM HEPES, 20 mM NaCl, 0.2 mM TCEP, 0.2 mM EDTA, and 0.005% Tween20 was dispensed to each assay plate. Test compounds were stored in dry, ambient temperatures at 10 mM. A 10-point, 1:3 dilution series was prepared from 10 mM stock concentrations in Echo-compatible LDV plates. 10 nL of each compound dilution series was dispensed into assays wells using an Echo 650 (Labcyte inc. USA). 10 nL of 10 mM lenalidomide (Selleckchem Cat no. S1029) was transferred into the active-control wells for the assay and 10 nL of DMSO was transferred into the negative control wells. The assay was then allowed to incubate for 30 min at ambient temperature after transferring the test compounds. Plate measurements were taken on a Pherastar FSX (BMG Labtech, Germany) using the HTRF Red filter (Ex. 337 nm, em1: 620 nm, em2: 665 nm) (Flashes: 50, Integration time: 60-400 μs, Z-height: 10 mm, Ratio-multiplier: 10,000). Analysis, HTRF ratio and IC50 values were derived using KNIME analytics (KNIME Zurich) transformation and fitting within Collaborative Drug Discovery (Collaborative Drug Discovery USA) using a 4-parameter logistic fit. HTRF ratio calculation was performed using the following formula: […]
where Y represents the HTRF ratio response (as defined previously), X the compound concentration in μM, Ymin the minimum response plateau, Ymax the maximum response plateau, IC50 the concentration of agonist that gives a response half way between Ymin and Ymax and HillSlope the steepness of the family of curves. No fitting model constraints was applied on Ymin, or Ymax whilst IC50>0 and −0.5>HillSlope>−3
Ki values were derived from the geometric mean of the IC50 values using the Cheng-Prusoff transformation:
where [L] represents the concentration of fluorescent probe in μM, Kd the affinity (binding constant) of the fluorescent probe in units of μM and IC50 the concentration of agonist that gives a response halfway between Ymin and Ymax (as described in 1.2.1)
Analysis and IC50 values were derived using KNIME analytics (KNIME, Zurich) transformation and fitting within Collaborative Drug Discovery (Collaborative Drug Discovery, USA) as described in 1.2.1. Ki values were derived from the geometric mean of the IC50 values using the Cheng-Prusoff transformation as described in 2.2.2. Data was visualized in GraphPad Prism 8.1.2 (GraphPad, USA) and reported as mean and standard deviation. Microsoft Office Excel 2012 (Redmond, WA) was used for calculation of mean and standard deviation.
IC50 data are reported in Table 3 for compounds in Table 1. In Table 3 below, According to the code, A represents a IC50 value of ≤0.1 μM, B represents a IC50 value>0.1 μM and ≤1 μM, C represents an IC50 value>1 μM.

T1 sequence (P48729 whole entry): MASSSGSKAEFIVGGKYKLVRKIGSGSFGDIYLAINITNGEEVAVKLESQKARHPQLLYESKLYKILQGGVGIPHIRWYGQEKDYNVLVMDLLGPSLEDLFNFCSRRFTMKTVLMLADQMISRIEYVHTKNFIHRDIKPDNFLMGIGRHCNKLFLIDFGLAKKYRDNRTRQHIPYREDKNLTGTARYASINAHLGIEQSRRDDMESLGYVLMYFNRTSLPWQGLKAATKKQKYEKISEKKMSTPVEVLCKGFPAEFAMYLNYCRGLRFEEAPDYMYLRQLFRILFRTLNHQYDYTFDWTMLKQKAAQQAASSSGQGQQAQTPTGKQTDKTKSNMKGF
T1 sequence (Q96SW2 whole entry, further chain): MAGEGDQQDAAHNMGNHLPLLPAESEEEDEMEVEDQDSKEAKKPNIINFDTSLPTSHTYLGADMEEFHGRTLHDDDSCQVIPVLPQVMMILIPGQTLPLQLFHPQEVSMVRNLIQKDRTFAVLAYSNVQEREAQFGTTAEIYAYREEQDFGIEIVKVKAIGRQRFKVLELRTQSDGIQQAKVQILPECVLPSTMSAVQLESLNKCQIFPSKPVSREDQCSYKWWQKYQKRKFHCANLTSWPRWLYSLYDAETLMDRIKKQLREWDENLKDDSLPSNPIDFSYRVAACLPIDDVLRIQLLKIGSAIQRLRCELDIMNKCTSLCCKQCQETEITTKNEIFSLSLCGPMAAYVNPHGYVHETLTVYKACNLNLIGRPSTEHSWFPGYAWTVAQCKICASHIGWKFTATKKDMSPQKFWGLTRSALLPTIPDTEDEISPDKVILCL
T1 sequence (Q16531 2-1140 partner limits assumed): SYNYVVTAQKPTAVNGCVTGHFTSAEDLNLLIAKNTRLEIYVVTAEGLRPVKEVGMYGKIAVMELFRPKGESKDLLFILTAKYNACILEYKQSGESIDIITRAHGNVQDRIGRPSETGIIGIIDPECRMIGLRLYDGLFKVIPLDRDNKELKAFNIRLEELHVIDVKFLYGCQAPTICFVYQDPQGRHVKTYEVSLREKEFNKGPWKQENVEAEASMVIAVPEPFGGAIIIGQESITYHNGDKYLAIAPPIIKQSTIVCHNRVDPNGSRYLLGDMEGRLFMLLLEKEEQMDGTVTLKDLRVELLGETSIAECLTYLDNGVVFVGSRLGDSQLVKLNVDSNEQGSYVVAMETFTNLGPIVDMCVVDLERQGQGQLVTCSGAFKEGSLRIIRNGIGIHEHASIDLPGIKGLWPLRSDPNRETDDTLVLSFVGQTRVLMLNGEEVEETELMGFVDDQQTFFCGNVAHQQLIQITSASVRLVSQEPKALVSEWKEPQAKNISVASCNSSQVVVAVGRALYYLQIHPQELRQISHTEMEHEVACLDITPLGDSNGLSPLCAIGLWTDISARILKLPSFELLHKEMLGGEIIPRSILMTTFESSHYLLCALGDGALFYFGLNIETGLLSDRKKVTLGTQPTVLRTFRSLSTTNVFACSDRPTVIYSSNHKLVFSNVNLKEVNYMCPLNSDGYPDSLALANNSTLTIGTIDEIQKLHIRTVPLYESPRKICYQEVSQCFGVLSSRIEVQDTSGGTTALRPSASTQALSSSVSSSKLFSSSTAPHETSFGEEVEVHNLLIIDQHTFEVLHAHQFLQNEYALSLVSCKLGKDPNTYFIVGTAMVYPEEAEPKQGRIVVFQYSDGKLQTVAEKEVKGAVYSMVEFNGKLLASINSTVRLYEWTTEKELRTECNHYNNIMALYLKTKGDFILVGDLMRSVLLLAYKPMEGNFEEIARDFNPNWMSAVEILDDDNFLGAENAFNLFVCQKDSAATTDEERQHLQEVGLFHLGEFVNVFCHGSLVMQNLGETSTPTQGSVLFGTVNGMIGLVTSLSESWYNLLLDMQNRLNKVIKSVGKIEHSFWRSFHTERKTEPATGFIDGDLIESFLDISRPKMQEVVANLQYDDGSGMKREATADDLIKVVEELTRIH
Sequence of CRBN/DDB1 (Q96SW2 whole entry, species assumed): as the sequence (Q96SW2 whole entry, further chain) above
Sequence of CRBN/DDB1 (Q16531 whole entry partner, species assumed): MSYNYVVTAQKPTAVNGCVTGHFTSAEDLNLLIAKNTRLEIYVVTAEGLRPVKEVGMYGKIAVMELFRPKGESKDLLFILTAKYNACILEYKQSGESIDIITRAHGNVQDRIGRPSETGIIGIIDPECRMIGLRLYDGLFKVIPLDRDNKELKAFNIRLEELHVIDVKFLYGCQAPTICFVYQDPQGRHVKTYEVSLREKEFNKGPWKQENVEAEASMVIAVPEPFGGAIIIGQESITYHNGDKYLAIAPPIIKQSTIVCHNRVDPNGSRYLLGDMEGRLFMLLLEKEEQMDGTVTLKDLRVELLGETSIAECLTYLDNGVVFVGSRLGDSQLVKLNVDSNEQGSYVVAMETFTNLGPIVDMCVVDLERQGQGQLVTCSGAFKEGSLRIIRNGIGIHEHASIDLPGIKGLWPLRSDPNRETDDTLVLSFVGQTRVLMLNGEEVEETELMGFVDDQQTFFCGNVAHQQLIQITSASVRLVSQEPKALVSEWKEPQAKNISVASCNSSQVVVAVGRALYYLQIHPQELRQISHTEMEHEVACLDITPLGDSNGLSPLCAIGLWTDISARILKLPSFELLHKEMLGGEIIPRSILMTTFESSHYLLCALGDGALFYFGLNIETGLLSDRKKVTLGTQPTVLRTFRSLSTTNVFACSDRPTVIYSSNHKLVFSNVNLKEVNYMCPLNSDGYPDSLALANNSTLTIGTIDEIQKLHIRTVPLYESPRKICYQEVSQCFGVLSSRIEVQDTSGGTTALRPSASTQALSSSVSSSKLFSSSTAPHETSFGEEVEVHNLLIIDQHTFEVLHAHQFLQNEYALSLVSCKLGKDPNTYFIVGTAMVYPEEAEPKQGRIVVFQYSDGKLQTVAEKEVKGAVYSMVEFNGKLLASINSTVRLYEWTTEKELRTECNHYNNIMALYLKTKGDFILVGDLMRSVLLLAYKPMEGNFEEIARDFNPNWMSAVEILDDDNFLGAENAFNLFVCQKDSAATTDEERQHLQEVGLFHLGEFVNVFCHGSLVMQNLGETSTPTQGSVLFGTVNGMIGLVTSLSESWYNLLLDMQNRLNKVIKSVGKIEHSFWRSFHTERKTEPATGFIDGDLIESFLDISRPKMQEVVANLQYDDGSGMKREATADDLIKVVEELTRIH

For `O=C1CCC(N2Cc3cc(NC(=O)N4c5cccc(F)c5C[C@H]4COC(F)F)ccc3C2=O)C(=O)N1` (stereo partly drawn) [Compound 308, (2S)-2-((difluoromethoxy)methyl)-N-(2-(2,6-dioxopiperidin-3-yl)-1-oxoisoindolin-5-yl)-4-fluoroindoline-1-carboxamide], the DC50 [1] was < 0.1 µM and the IC50 [2] was 100 to 1000 nM.

`O=C1CCC(N2Cc3cc(NC(=O)N4c5ccccc5C[C@H]4COC(F)F)ccc3C2=O)C(=O)N1` (stereo partly drawn) [Compound 309, (2S)-2-((difluoromethoxy)methyl)-N-(2-(2,6-dioxopiperidin-3-yl)-1-oxoisoindolin-5-yl)indoline-1-carboxamide] was tested, and the DC50 [1] was < 0.1 µM and the IC50 [2] was 100 to 1000 nM.

In the case of `NC[C@@H]1Cc2ccccc2N1C(=O)Nc1ccc2c(c1)CN(C1CCC(=O)NC1=O)C2=O` (stereo partly drawn) [Compound 310, (2S)-2-(aminomethyl)-N-(2-(2,6-dioxopiperidin-3-yl)-1-oxoisoindolin-5-yl)indoline-1-carboxamide], the DC50 [1] is reported as 0.1 to 1 µM and the IC50 [2] is reported as 100 to 1000 nM.

In the case of `O=C1CCC(N2Cc3cc(NC(=O)N4c5ccccc5C[C@H]4COC(F)(F)F)ccc3C2=O)C(=O)N1` (stereo partly drawn) [Compound 311, (2S)—N-(2-(2,6-dioxopiperidin-3-yl)-1-oxoisoindolin-5-yl)-2-((trifluoromethoxy)methyl)indoline-1-carboxamide], the DC50 [1] is reported as < 0.1 µM and the IC50 [2] is reported as 100 to 1000 nM.

Work on `CNC[C@@H]1Cc2ccccc2N1C(=O)Nc1ccc2c(c1)CN(C1CCC(=O)NC1=O)C2=O` (stereo partly drawn) [Compound 312, (2S)—N-(2-(2,6-dioxopiperidin-3-yl)-1-oxoisoindolin-5-yl)-2-((methylamino)methyl)indoline-1-carboxamide] yielded a DC50 [1] of 0.1 to 1 µM and an IC50 [2] of 100 to 1000 nM.

For `CCOC[C@@H]1Cc2ccccc2N1C(=O)Nc1ccc2c(c1)CN(C1CCC(=O)NC1=O)C2=O` (stereo partly drawn) [Compound 313, (2S)—N-(2-(2,6-dioxopiperidin-3-yl)-1-oxoisoindolin-5-yl)-2-(ethoxymethyl)indoline-1-carboxamide], the DC50 [1] was < 0.1 µM and the IC50 [2] was 100 to 1000 nM.

`COC[C@@H]1Cc2c(F)cccc2N1C(=O)Nc1ccc2c(c1)CN(C1CCC(=O)NC1=O)C2=O` (stereo partly drawn) [Compound 314, (2S)—N-(2-(2,6-dioxopiperidin-3-yl)-1-oxoisoindolin-5-yl)-4-fluoro-2-(methoxymethyl)indoline-1-carboxamide] was tested, and the DC50 [1] was < 0.1 µM and the IC50 [2] was 100 to 1000 nM.

For `O=C1CCC(N2Cc3cc(NC(=O)N4c5ccccc5C[C@H]4CN4CCC4)ccc3C2=O)C(=O)N1` (stereo partly drawn) [Compound 315, (2S)-2-(azetidin-1-ylmethyl)-N-(2-(2,6-dioxopiperidin-3-yl)-1-oxoisoindolin-5-yl)indoline-1-carboxamide], the DC50 [1] was 0.1 to 1 µM and the IC50 [2] was 100 to 1000 nM.

`O=C1CCC(N2Cc3cc(NC(=O)N4c5ccccc5C[C@H]4COCC(F)(F)F)ccc3C2=O)C(=O)N1` (stereo partly drawn) [Compound 316, (2S)—N-(2-(2,6-dioxopiperidin-3-yl)-1-oxoisoindolin-5-yl)-2-((2,2,2-trifluoroethoxy)methyl)indoline-1-carboxamide] was tested, and the DC50 [1] was < 0.1 µM and the IC50 [2] was 100 to 1000 nM.

With `O=C1CCC(N2Cc3cc(NC(=O)N4CC5(CCOC5)c5ccccc54)ccc3C2=O)C(=O)N1` (stereo not drawn) [Compound 317, N-(2-(2,6-dioxopiperidin-3-yl)-1-oxoisoindolin-5-yl)-4,5-dihydro-2H-spiro[furan-3,3′-indoline]-1′-carboxamide] the DC50 [1] was < 0.1 µM and the IC50 [2] was 100 to 1000 nM.

`COC[C@@H]1Cc2cc(C(F)(F)F)ccc2N1C(=O)Nc1ccc2c(c1)CN(C1CCC(=O)NC1=O)C2=O` (stereo partly drawn) [Compound 318, (2S)—N-(2-(2,6-dioxopiperidin-3-yl)-1-oxoisoindolin-5-yl)-2-(methoxymethyl)-5-(trifluoromethyl)indoline-1-carboxamide] was tested, and the DC50 [1] was < 0.1 µM and the IC50 [2] was 100 to 1000 nM.

`COC[C@H]1CN(C(=O)Nc2ccc3c(c2)CN(C2CCC(=O)NC2=O)C3=O)c2ccc(C(F)(F)F)cc21` (stereo partly drawn) [Compound 319, (3R)—N-(2-(2,6-dioxopiperidin-3-yl)-1-oxoisoindolin-5-yl)-3-(methoxymethyl)-5-(trifluoromethyl)indoline-1-carboxamide] was tested, and the DC50 [1] was < 0.1 µM and the IC50 [2] was 100 to 1000 nM.

For `COCC1C2c3ccccc3N(C(=O)Nc3ccc4c(c3)CN(C3CCC(=O)NC3=O)C4=O)C12` (stereo not drawn) [Compound 320, N-(2-(2,6-dioxopiperidin-3-yl)-1-oxoisoindolin-5-yl)-1-(methoxymethyl)-1a, 6b-dihydrocyclopropa[b]indole-2(1H)-carboxamide], the DC50 [1] was < 0.1 µM and the IC50 [2] was 100 to 1000 nM.

For `COCC1Cc2cc(C(F)(F)F)ncc2N1C(=O)Nc1ccc2c(c1)CN(C1CCC(=O)NC1=O)C2=O` (stereo not drawn) [Compound 321, N-(2-(2,6-dioxopiperidin-3-yl)-1-oxoisoindolin-5-yl)-2-(methoxymethyl)-5-(trifluoromethyl)-2,3-dihydro-1H-pyrrolo[2,3-c]pyridine-1-carboxamide], the DC50 [1] was < 0.1 µM and the IC50 [2] was 100 to 1000 nM.

`O=C1CCC(N2Cc3cc(NC(=O)N4c5ccccc5CC45COC5)ccc3C2=O)C(=O)N1` (stereo not drawn) [Compound 322, N-(2-(2,6-dioxopiperidin-3-yl)-1-oxoisoindolin-5-yl)spiro[indoline-2,3′-oxetane]-1-carboxamide] was tested, and the DC50 [1] was < 0.1 µM and the IC50 [2] was 100 to 1000 nM.

`CN(C)C[C@@H]1Cc2ccccc2N1C(=O)Nc1ccc2c(c1)CN(C1CCC(=O)NC1=O)C2=O` (stereo partly drawn) [Compound 323, (2S)-2-((dimethylamino)methyl)-N-(2-(2,6-dioxopiperidin-3-yl)-1-oxoisoindolin-5-yl)indoline-1-carboxamide] was tested, and the DC50 [1] was 0.1 to 1 µM and the IC50 [2] was 100 to 1000 nM.

With `COCC1c2ccc(C(F)(F)F)cc2CN1C(=O)Nc1ccc2c(c1)CN(C1CCC(=O)NC1=O)C2=O` (stereo not drawn) [Compound 324, N-(2-(2,6-dioxopiperidin-3-yl)-1-oxoisoindolin-5-yl)-1-(methoxymethyl)-5-(trifluoromethyl)isoindoline-2-carboxamide] the DC50 [1] was < 0.1 µM and the IC50 [2] was 100 to 1000 nM.

In the case of `COC[C@@H]1Cc2c(cccc2C(F)(F)F)N1C(=O)Nc1ccc2c(c1)CN(C1CCC(=O)NC1=O)C2=O` (stereo partly drawn) [Compound 325, (2S)—N-(2-(2,6-dioxopiperidin-3-yl)-1-oxoisoindolin-5-yl)-2-(methoxymethyl)-4-(trifluoromethyl)indoline-1-carboxamide], the DC50 [1] is reported as < 0.1 µM and the IC50 [2] is reported as 100 to 1000 nM.

Work on `CNC(=O)[C@@H]1Cc2ccccc2N1C(=O)Nc1ccc2c(c1)CN(C1CCC(=O)NC1=O)C2=O` (stereo partly drawn) [Compound 326, (2S)—N^1-(2-(2,6-dioxopiperidin-3-yl)-1-oxoisoindolin-5-yl)-N^2-methylindoline-1,2-dicarboxamide] yielded a DC50 [1] of 0.1 to 1 µM and an IC50 [2] of 100 to 1000 nM.

Compound `CN(C)C(=O)[C@@H]1Cc2ccccc2N1C(=O)Nc1ccc2c(c1)CN(C1CCC(=O)NC1=O)C2=O` (stereo partly drawn) [Compound 327, (2S)-N1-(2-(2,6-dioxopiperidin-3-yl)-1-oxoisoindolin-5-yl)-N2,N2-dimethylindoline-1,2-dicarboxamide] has a DC50 [1] of 0.1 to 1 µM and an IC50 [2] of 100 to 1000 nM.

In the case of `COC[C@@H]1CN(C(=O)Nc2ccc3c(c2)CN(C2CCC(=O)NC2=O)C3=O)c2ccccc21` (stereo partly drawn) [Compound 328, (3S)—N-(2-(2,6-dioxopiperidin-3-yl)-1-oxoisoindolin-5-yl)-3-(methoxymethyl)indoline-1-carboxamide], the DC50 [1] is reported as < 0.1 µM and the IC50 [2] is reported as 100 to 1000 nM.

Source: patent US20250171420A1 (Monte Rosa Therapeutics, Inc., priority 2022, published 2025)
